Laboratory results published in PMC5960316 (Proceedings of the National Academy of Sciences of the …, 2018).

Key:
[1] = target: T1, B. subtilis class Ib RNR (NrdE with Mn(III)2-Y• NrdF) (Bacillus subtilis, UniProt P50620); assay: spectrophotometric RNR activity assay, dATP titration; assay type: biochemical; settings: read-out: % activity remaining at 25 μM
T1 sequence (P50620 1-700): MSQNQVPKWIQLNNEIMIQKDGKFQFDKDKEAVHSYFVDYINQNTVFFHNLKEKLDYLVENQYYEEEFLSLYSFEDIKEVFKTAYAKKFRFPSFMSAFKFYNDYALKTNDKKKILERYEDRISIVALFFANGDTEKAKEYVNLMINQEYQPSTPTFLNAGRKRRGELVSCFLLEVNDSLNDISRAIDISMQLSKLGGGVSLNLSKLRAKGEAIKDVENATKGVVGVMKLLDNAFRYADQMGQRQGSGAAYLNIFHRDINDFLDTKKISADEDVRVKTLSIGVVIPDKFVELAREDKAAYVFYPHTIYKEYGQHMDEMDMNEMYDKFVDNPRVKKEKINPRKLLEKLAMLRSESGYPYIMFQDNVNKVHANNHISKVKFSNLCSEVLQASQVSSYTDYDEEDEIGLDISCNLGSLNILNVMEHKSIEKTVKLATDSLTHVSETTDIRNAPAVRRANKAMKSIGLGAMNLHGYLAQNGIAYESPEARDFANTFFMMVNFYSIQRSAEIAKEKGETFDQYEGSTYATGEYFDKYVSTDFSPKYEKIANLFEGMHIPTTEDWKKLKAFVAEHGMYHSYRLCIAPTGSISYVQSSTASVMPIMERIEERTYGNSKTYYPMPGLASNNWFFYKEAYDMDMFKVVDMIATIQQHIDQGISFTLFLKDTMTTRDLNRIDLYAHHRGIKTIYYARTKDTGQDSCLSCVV
T1 sequence (P50621 1-329 partner): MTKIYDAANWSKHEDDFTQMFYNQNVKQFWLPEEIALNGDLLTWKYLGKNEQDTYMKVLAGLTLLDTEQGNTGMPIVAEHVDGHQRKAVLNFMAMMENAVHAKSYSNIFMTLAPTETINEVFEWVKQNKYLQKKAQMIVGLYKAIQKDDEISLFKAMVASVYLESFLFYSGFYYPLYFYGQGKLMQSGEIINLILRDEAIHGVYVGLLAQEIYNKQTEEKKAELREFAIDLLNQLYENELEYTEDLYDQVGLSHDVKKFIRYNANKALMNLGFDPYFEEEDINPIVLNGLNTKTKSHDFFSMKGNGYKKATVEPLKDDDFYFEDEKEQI

[2] = target: T2, endogenous NrdEF (BsNrdEF) (Bacillus subtilis, UniProt P50620); assay: HClO4 release and high-resolution LC/ESI-MS of copurified nucleotide; assay type: binding; settings: stoichiometry, not affinity; native copurified ligand; protein ~80% pure
T2 sequence (P50620 1-700): T1 sequence (P50620 1-700)
T2 sequence (P50621 1-329 partner): T1 sequence (P50621 1-329 partner)

[3] = target: T3, Bacillus subtilis NrdE isolated from B. subtilis as the NrdE⋅NrdF (NrdEF) complex (Bacillus subtilis, UniProt P50620 1-700); assay: co-purification from B. subtilis
T3 sequence (looked up): T1 sequence (P50620 1-700)

Molecule Nc1ncnc2c1ncn2[C@H]1C[C@H](O)[C@@H](COP(=O)(O)OP(=O)(O)OP(=O)(O)O)O1 [dATP] has a remaining activity at 25 µM [1] of about 15%.

Nc1ncnc2c1ncn2[C@H]1C[C@H](O)[C@@H](COP(=O)(O)O)O1 [dAMP] showed a dAMP/α [2] of 0.3 per α.

B1: Bacillus subtilis NrdF (Mn-loaded) isolated from B. subtilis as the NrdE⋅NrdF (NrdEF) complex (enzyme, UniProt P50621 1-329, looked up)
chain: T1 sequence (P50621 1-329 partner)
B1 was tested, and the “stoichiometry N” value [3] was about 1.
